Data reported in patent US20250019350A1, “SYNTHESIS OF THE PROSTATE SPECIFIC MEMBRANE ANTIGEN (PSMA) RADIOLABELED INHIBITOR [18F]DCFPYL” (Progenics Pharmaceuticals, Inc, priority 2023, published 2025).

Test: Radiolysis / stability of [18F]DCFPyL over time by HPLC with radiodetection (RCP, free 18F, radioactive impurities)
Format: physicochemical
Protocol: Those of ordinary skill in the art will be aware of techniques and systems for determining the radiochemical purity of a composition. In some cases, the radiochemical purity is determined using an HPLC associated with a radio-detector. Generally, the radiochemical purity is determined under ambient conditions (e.g., ambient temperature, ambient humidity, ambient light, etc.), such as in samples stored under such conditions.
Stability was assessed using reverse phase HPLC on a C18 column with a phosphate buffer/acetonitrile gradient mobile phase, and the elution profile was monitored using both UV and radiochemical detectors. Samples were analyzed either by direct injection onto the HPLC, dilution and injection or including the addition of tetraethylammonium fluoride (TEAF) into the sample before injection.
Known amounts of free ^18F either alone or spiked with TEAF were injected onto the analytic column and the eluent from the column collected over the course of a chromatogram and assaying the radioactivity using a Capintec. […] Adding TEAF into the analytic samples was incorporated into subsequent studies examining potential radiolysis of [^18F]DCFPyL to overcome some of the limitations of free ^18F quantification.
Analytical HPLC method was used. The method employs UV detection at 264 nm for chemical impurities, and an Eckert & Ziegler model B-FC-1000 gamma detector for radiochemical assays.

[1] = T = 10, 50 mg/mL ascorbic acid pH 5.8, 20% ethanol, 106.5 mCi/mL at EOS
[2] = T = 0.5 hr, 50 mg/mL ascorbic acid pH 5.8 in final product vial, 20% ethanol, 110 mCi/mL at EOS
[3] = T = 0.5 hr, 100 mg/mL ascorbic acid pH 2.0, 256 mCi/mL at EOS
[4] = T = 0.5 hr, 20% ethanol in saline, 52 mCi/mL at EOS
[5] = T = 0.5 hr, 20% ethanol in saline, 65 mCi/mL at EOS
[6] = T = 0.5 hr, 20% ethanol in saline, 85 mCi/mL at EOS
[7] = T = 0.5 hr, control without ascorbic acid, 36% ethanol in saline, 147 mCi/mL at EOS
[8] = T = 1.0 hr, 50 mg/mL ascorbic acid pH 5.8 in final product vial, 20% ethanol, 110 mCi/mL at EOS
[9] = T = 1.0 hr, 100 mg/mL ascorbic acid pH 2.0, 256 mCi/mL at EOS
[10] = T = 1 hr, 20% ethanol in saline, 52 mCi/mL at EOS
[11] = T = 1 hr, 20% ethanol in saline, 65 mCi/mL at EOS
[12] = T = 1 hr, 20% ethanol in saline, 85 mCi/mL at EOS
[13] = T = 1 hr, 100% ethanol, 325 mCi/mL at EOS
[14] = T = 1 hr, control without ascorbic acid, 36% ethanol in saline, 147 mCi/mL at EOS
[15] = T = 1.5 hr (Table 3 prints 1.6 hr), control without ascorbic acid, 36% ethanol in saline, 147 mCi/mL at EOS
[16] = T = 1.5 hr, 50 mg/mL ascorbic acid pH 5.8 in final product vial, 20% ethanol, 110 mCi/mL at EOS
[17] = T = 1.5 hr, 100 mg/mL ascorbic acid pH 2.0, 256 mCi/mL at EOS
[18] = T = 1.5 hr, 20% ethanol in saline, 52 mCi/mL at EOS
[19] = T = 1.5 hr, 20% ethanol in saline, 65 mCi/mL at EOS
[20] = T = 1.5 hr, 20% ethanol in saline, 85 mCi/mL at EOS
[21] = T = 2 hr, 0.5 mg/mL ascorbic acid pH 5.8, 20% ethanol, 105.8 mCi/mL at EOS
[22] = T = 2 hr, 1 mg/mL ascorbic acid pH 5.8, 20% ethanol, 107.0 mCi/mL at EOS
[23] = T = 2 hr, 5 mg/mL ascorbic acid pH 5.8, 20% ethanol, 99.0 mCi/mL at EOS
[24] = T = 2 hr, 20 mg/mL sodium citrate, 20% ethanol, 104.8 mCi/mL at EOS
[25] = T = 2 hr, 50 mg/mL ascorbic acid pH 5.8, 20% ethanol, 139.7 mCi/mL at EOS
[26] = T = 2.0 hr, 50 mg/mL ascorbic acid pH 5.8 in final product vial, 20% ethanol, 110 mCi/mL at EOS
[27] = T = 2.0 hr, 100 mg/mL ascorbic acid pH 2.0, 256 mCi/mL at EOS
[28] = T = 2 hr, 20% ethanol in saline, 52 mCi/mL at EOS
[29] = T = 2 hr, 20% ethanol in saline, 65 mCi/mL at EOS
[30] = T = 2 hr, 20% ethanol in saline, 85 mCi/mL at EOS
[31] = T = 2 hr, 100% ethanol, 325 mCi/mL at EOS
[32] = T = 2 hr, control without ascorbic acid, 36% ethanol in saline, 147 mCi/mL at EOS
[33] = T = 2.5 hr, 50 mg/mL ascorbic acid pH 5.8 in final product vial, 20% ethanol, 110 mCi/mL at EOS

O=C(O)CC[C@H](NC(=O)N[C@@H](CCCCNC(=O)c1ccc([18F])nc1)C(=O)O)C(=O)O [Lot 18F-DCFPyL, 2-(3-{1-carboxy-5-[(6-[18F]fluoro-pyridine-3-carbonyl)-amino]-pentyl}ureido)-pentanedioic acid]
18F-DCFPyL (% RCP) [1]: 99.43% | Free F-18 [1]: 0.57% | 18F-DCFPyL (RCP) [2]: 99.69% | RT 5.0 radioactive impurity [2]: 0.31% | 18F-DCFPyL (RCP) [3]: 99.60% | Free 18F [3]: 0.40% | 18F-DCFPyL (RCP) [4]: 99.18% | Free F-18 [4]: 0.36% | RT 5.0 radioactive impurity [4]: 0.47% | 18F-DCFPyL (RCP) [5]: 96.43% | Free F-18 [5]: 3.17% | RT 5.0 radioactive impurity [5]: 0.39% | 18F-DCFPyL (RCP) [6]: 96.74% | Free F-18 [6]: 2.92% | RT 5.0 radioactive impurity [6]: 0.34% | 18F-DCFPyL (RCP) [7]: 90.65% | Free F-18 [7]: 7.73% | RT 5.0 radioactive impurity [7]: 0.65% | RT 5.9 radioactive impurity [7]: 0.97% | 18F-DCFPyL (RCP) [8]: 96.73% | RT 5.0 radioactive impurity [8]: 0.27% | 18F-DCFPyL (RCP) [9]: 98.68% | Free 18F [9]: 0.31% | RT 5.0 radioactive impurity [9]: 0.35% | RT 12.0 radioactive impurity [9]: 0.35% | RT 12.2 radioactive impurity [9]: 0.31% | 18F-DCFPyL (RCP) [10]: 98.93% | Free F-18 [10]: 0.56% | RT 5.0 radioactive impurity [10]: 0.51% | 18F-DCFPyL (RCP) [11]: 96.15% | Free F-18 [11]: 3.22% | RT 5.0 radioactive impurity [11]: 0.36% | RT 5.9 radioactive impurity [11]: 0.28% | 18F-DCFPyL (RCP) [12]: 96.64% | Free F-18 [12]: 2.98% | RT 5.0 radioactive impurity [12]: 0.38% | 18F-DCFPyL (RCP) [13]: 96.66% | Free F-18 [13]: 3.34% | 18F-DCFPyL (RCP) [14]: 90.71% | Free F-18 [14]: 7.69% | RT 5.0 radioactive impurity [14]: 0.48% | RT 5.9 radioactive impurity [14]: 1.11% | 18F-DCFPyL (RCP) [15]: 89.59% | Free F-18 [15]: 8.78% | RT 5.0 radioactive impurity [15]: 0.61% | RT 5.9 radioactive impurity [15]: 1.03% | 18F-DCFPyL (RCP) [16]: 99.61% | RT 5.0 radioactive impurity [16]: 0.39% | RT 5.9 radioactive impurity [16]: 0.31% | 18F-DCFPyL (RCP) [17]: 98.58% | Free 18F [17]: 0.31% | RT 5.0 radioactive impurity [17]: 0.28% | RT 12.0 radioactive impurity [17]: 0.46% | RT 12.2 radioactive impurity [17]: 0.37% | 18F-DCFPyL (RCP) [18]: 98.70% | Free F-18 [18]: 0.80% | RT 5.0 radioactive impurity [18]: 0.50% | 18F-DCFPyL (RCP) [19]: 95.78% | Free F-18 [19]: 3.55% | RT 5.0 radioactive impurity [19]: 0.38% | RT 5.9 radioactive impurity [19]: 0.29% | 18F-DCFPyL (RCP) [20]: 95.06% | Free F-18 [20]: 4.22% | RT 5.0 radioactive impurity [20]: 0.41% | RT 5.9 radioactive impurity [20]: 0.31% | 18F-DCFPyL (% RCP) [21]: 98.99% | Free F-18 [21]: 1.01% | 18F-DCFPyL (% RCP) [22]: 98.88% | Free F-18 [22]: 1.12% | Free F-18 (T = 2 hr, 1 mg/mL sodium ascorbate, 20% ethanol, 111.5 mCi/mL at EOS): 1.89% | 18F-DCFPyL (% RCP) [23]: 99.45% | Free F-18 [23]: 0.55% | Free F-18 (T = 2 hr, 5 mg/mL sodium ascorbate, 20% ethanol, 114.6 mCi/mL at EOS): 0.89% | Free F-18 [24]: 18.24% | RT 3.4 radioactive impurity [24]: 0.30% | RT 3.7 radioactive impurity [24]: 0.31% | 18F-DCFPyL (% RCP) [25]: 100.00% | Free F-18 [25]: 0.00% | RT 4.8 radioactive impurity (T = 2 hr, 50 mg/mL ascorbic acid pH 5.8, 20% ethanol, 139.7 mCi/mL at EOS, MPA = 0.25% of main peak): <MPA | 18F-DCFPyL (RCP) [26]: 99.67% | RT 5.0 radioactive impurity [26]: 0.33% | RT 5.9 radioactive impurity [26]: 0.24% | 18F-DCFPyL (RCP) [27]: 98.35% | Free 18F [27]: 0.31% | RT 5.0 radioactive impurity [27]: 0.35% | RT 12.0 radioactive impurity [27]: 0.52% | RT 12.2 radioactive impurity [27]: 0.47% | 18F-DCFPyL (RCP) [28]: 98.62% | Free F-18 [28]: 0.91% | RT 5.0 radioactive impurity [28]: 0.47% | 18F-DCFPyL (RCP) [29]: 95.91% | Free F-18 [29]: 3.78% | RT 5.0 radioactive impurity [29]: 0.31% | 18F-DCFPyL (RCP) [30]: 95.37% | Free F-18 [30]: 4.00% | RT 5.0 radioactive impurity [30]: 0.39% | RT 5.9 radioactive impurity [30]: 0.24% | 18F-DCFPyL (RCP) [31]: 96.38% | Free F-18 [31]: 3.62% | 18F-DCFPyL (RCP) [32]: 89.50% | Free F-18 [32]: 8.67% | RT 5.0 radioactive impurity [32]: 0.77% | RT 5.9 radioactive impurity [32]: 1.05% | 18F-DCFPyL (RCP) [33]: 99.63% | RT 5.0 radioactive impurity [33]: 0.37% | RT 5.9 radioactive impurity [33]: 0.35%
